Reference: patent US7691416B2, “Methods of treating vascular disease” (priority 2002, dated 2010)
Entries after “also recorded” stand apart in the source; their conditions may differ.

Tests used:
PAI-1 [1] = experiment: PAI-1 protein in transplanted aortas (immunohistology and Western blot); type: in vivo, rat; settings: 56 days after transplantation
Description: (§1) Animals. Male (250-350 g) Brown Norway rats (RT1^n) were used as aortic graft donors and male (250-350 g) Lewis rats (RT11) as recipients. Dawley (400-450 g) rats were used in the balloon injury model. Adult male C57BL/6, C57/S129, p21^−/− and p53^−/− null mice were purchased from Jackson Laboratory (Bar Harbor, Me.). mkk3^(−/−) null mice were generated as described Lu et al. (EMBO. 18:1845-1857 (1999)). The inos^−/− and enos^−/− mice were bred at the University of Pittsburgh. Aortic transplant model. Aortic transplantation was performed as described in Shimizu et al. (Nat. Med. 7:738-741 (2001)). Briefly, 3 to 4 cm of descending aorta was harvested from the donor and implanted between the renal arteries and the aortic bifurcation of the recipient. Both edges of the native abdominal aorta were ligated. Balloon injury model. Balloon angioplasty was carried out as described in Murakami et al. (Atherosclerosis 157:361-368 (2001)). […] [^3H]thymidine incorporation was measured by scintillation spectroscopy and presented as mean counts/min/well. […] Areas from eight to ten captured images were calculated using digital imaging software as number of pixels corresponding to those areas. Twenty-four to forty-eight sections from each group were statistically analyzed with SPSS software version 10. […]

PAI-1 [2] = experiment: Western blot of PAI-1 in SMC; type: cell-based; settings: CO 250 ppm, 24 or 48 hours
Description: as §1

[C-]#[O+] [CO, carbon monoxide]
PAI-1 protein expression versus allogeneic aortas transplanted in the absence of CO (PAI-1 [1]): similar; also recorded: No decrease
PAI-1 protein (PAI-1 [2]): slightly increased
